Measurements published in patent publication US20250026765A1, “SPIROHETEROCYCLE DERIVATIVE HAVING SEROTONIN RECEPTOR BINDING ACTIVITY” (Shionogi & Co., Ltd., priority 2021, published 2025).
Like-named read-outs stand apart in the source and are kept apart here.

Assays:
[1] = target: human recombinant 5-HT2A receptor (Homo sapiens (Human), UniProt P28223); assay: 5-HT2A receptor binding inhibition test ([3H]-Ketanserin); conditions: Jump-In HEK cell membrane, 25° C. 1.5 hours
Outline: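 Membranes from Jump-In HEK cells expressing the receptor were incubated with [3H]-ketanserin at about its Kd (from Scatchard analysis) in Tris-HCl pH 7.4 buffer for 1.5 h at 25° C, then filtered and counted. Non-specific binding was defined with 500 μmol/L serotonin, and Ki was taken from dose-response curves.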

[2] = target: human recombinant 5-HT2C receptor (Homo sapiens (Human), UniProt P28335); assay: 5-HT2C receptor binding inhibition test ([3H]-Mesulergine); conditions: Jump-In HEK cell membrane, 37° C. 2 hours
human recombinant 5-HT2C receptor, sequence (P28335 33-458): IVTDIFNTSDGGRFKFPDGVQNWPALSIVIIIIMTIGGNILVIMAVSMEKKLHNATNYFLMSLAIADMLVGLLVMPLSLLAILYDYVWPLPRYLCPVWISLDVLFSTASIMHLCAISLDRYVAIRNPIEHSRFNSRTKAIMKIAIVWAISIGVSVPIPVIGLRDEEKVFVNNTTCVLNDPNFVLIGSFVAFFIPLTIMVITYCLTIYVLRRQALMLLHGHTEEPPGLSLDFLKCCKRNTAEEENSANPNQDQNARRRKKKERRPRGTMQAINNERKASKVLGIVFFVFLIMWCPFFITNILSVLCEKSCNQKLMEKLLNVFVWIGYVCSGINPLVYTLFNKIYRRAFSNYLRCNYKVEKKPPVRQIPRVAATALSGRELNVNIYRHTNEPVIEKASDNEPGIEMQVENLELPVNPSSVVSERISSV
Outline: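 Radioligand displacement on HEK membranes expressing human recombinant 5-HT2C (0.5 μg/well), [3H]-mesulergine near its Kd, in pH 7.4 Tris-HCl buffer with NaCl, MgCl2, KCl, CaCl2 and 0.1% BSA, 2 h at 37° C. Bound radioactivity measured after GF/B filtration; non-specific binding defined with 500 μmol/L serotonin, Ki from dose-response curve.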

human recombinant 5-HT2A receptor, sequence (P28223 whole entry): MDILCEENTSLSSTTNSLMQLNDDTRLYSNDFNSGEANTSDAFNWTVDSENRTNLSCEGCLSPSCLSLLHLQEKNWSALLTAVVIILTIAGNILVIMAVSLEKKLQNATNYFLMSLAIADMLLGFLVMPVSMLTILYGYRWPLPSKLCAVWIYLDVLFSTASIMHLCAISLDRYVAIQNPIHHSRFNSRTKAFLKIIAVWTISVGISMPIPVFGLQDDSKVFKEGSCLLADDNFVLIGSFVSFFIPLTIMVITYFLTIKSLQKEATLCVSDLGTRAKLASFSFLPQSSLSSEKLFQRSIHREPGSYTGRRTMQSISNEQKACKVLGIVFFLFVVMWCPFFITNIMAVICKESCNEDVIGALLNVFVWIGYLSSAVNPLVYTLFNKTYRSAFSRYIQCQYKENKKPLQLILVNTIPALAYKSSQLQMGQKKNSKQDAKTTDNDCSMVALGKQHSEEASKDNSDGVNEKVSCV

| Ki ([1]; read-out: human serotonin 5-HT2A receptor binding activity Ki) [nM] | Ki ([2]; read-out: human serotonin 5-HT2C receptor binding activity Ki) [nM] | Compound | Ki ([1]; read-out: h-5-HT2A Ki) [nM] | Ki ([2]; read-out: h-5-HT2C Ki) [nM] |
| --- | --- | --- | --- | --- |
| – | – | CC(C)COc1ccc(CN(Cc2cnn(C)n2)C2=NOC3(CCN(C)CC3)N2)c(F)c1 [Compound I-106] | < 10 | < 10 |
| – | – | CC(C)COc1ccc(CN(Cc2cnn(C)n2)C2=NOC3(CCN(C)CC3)N2)cc1F [Compound I-107] | < 10 | < 10 |
| – | – | CN1CCC2(CC1)NC(N(Cc1coc(C3CC3)n1)Cc1ccc(OCC(F)(F)F)cc1F)=NO2 [Compound I-108] | < 10 | < 10 |
| – | – | CCCc1ccc(CN(Cc2coc(C)n2)C2=NOC3(CCN(C)CC3)N2)c(F)c1 [Compound I-109] | < 10 | < 10 |
| – | – | CCCc1ccc(CN(Cc2coc(C)n2)C2=NOC3(CCN(C)CC3)N2)cc1F [Compound I-110] | < 10 | < 10 |
| – | – | CCCCOc1ccc(CN(Cc2cnn(C)n2)C2=NOC3(CCN(C)CC3)N2)cc1F [Compound I-111] | < 10 | < 10 |
| – | – | CCCCOc1ccc(CN(Cc2cnn(C)n2)C2=NOC3(CCN(C)CC3)N2)c(F)c1 [Compound I-112] | < 10 | < 10 |
| – | – | CN1CCC2(CC1)NC(N(Cc1ccc(OCC(F)(F)F)c(F)c1)Cc1coc(C3CC3)n1)=NO2 [Compound I-116] | < 10 | < 10 |
| – | – | Cc1nc(CN(Cc2ccc(OCC(C)C)cc2)C2=NOC3(CCN(C)CC3)N2)c(C)o1 [Compound I-117] | 10 to 100 | 10 to 100 |
| – | – | CC(C)COc1ccc(CN(Cc2coc(-c3ccccc3)n2)C2=NOC3(CCN(C)CC3)N2)cc1 [Compound I-118] | 100 to 500 | 100 to 500 |
| – | – | Cc1nc(CN(Cc2ccc(Cc3ccccc3)cc2)C2=NOC3(CCN(C)CC3)N2)co1 [Compound I-119] | < 10 | < 10 |
| – | – | COc1ccc(CN(Cc2coc(C)n2)C2=NOC3(CCN(C)CC3)N2)cn1 [Compound I-120] | 10 to 100 | 10 to 100 |
| – | – | COc1ccc(CN(Cc2coc(C)n2)C2=NOC3(CCN(C)CC3)N2)nc1 [Compound I-121] | 10 to 100 | 10 to 100 |
| – | – | Cc1nc(CN(Cc2csc3ccccc23)C2=NOC3(CCN(C)CC3)N2)co1 [Compound I-122] | < 10 | < 10 |
| – | – | Cc1nc(CN(Cc2cc3ccccc3s2)C2=NOC3(CCN(C)CC3)N2)co1 [Compound I-123] | < 10 | < 10 |
| – | – | CCOCc1ccc(CN(Cc2coc(C)n2)C2=NOC3(CCN(C)CC3)N2)cc1 [Compound I-124] | 10 to 100 | 10 to 100 |
| – | – | CCCOc1ccc(CN(Cc2coc(C)n2)C2=NOC3(CCN(C)CC3)N2)c(Cl)c1 [Compound I-126] | < 10 | < 10 |
| – | – | Cc1nc(CN(Cc2ccc(OCC(C)C)c(F)c2)C2=NOC3(CCN(C)CC3)N2)co1 [Compound I-127] | < 10 | < 10 |
| – | – | CCCOc1ccc(CN(Cc2coc(C)n2)C2=NOC3(CCNCC3)N2)c(Cl)c1 [Compound I-129] | < 10 | < 10 |
| 1.29 | 0.535 | Cc1nc(CN(Cc2ccc(OCC(C)C)c(F)c2)C2=NOC3(CCNCC3)N2)co1 [Compound I-130] | – | – |
| – | – | Cc1nc(CN(Cc2ccc(OCC(C)C)cc2F)C2=NOC3(CCNCC3)N2)co1 [Compound I-131] | < 10 | < 10 |
| – | – | CN1CCC2(CC1)NC(N(Cc1ccc(OCC(F)(F)F)cc1)Cc1coc(CF)n1)=NO2 [Compound I-132] | < 10 | < 10 |
| – | – | CCCCc1ccc(CN(Cc2cnn(C)n2)C2=NOC3(CCN(C)CC3)N2)cc1 [Compound I-133] | < 10 | < 10 |
| – | – | CCCCOc1ccc(CN(Cc2coc(C)n2)C2=NOC3(CCNCC3)N2)cc1 [Compound I-134] | < 10 | < 10 |
